Results taken from US9067920B2, “Compounds useful for inhibiting Chk1” (Eli Lilly and Company, priority 2010, dated 2015).
Where a name gives a salt, the structure may show the parent alone.

Tested on: HeLa cells
Experiment: Doxorubicin-induced G2M checkpoint abrogation HeLa cell-based Acumen assay (pHH3)
Conditions: 125 nM doxorubicin, 7 h compound
Method: An inhibitor of Chk1 will disable the G2M DNA damage checkpoint in p53-minus tumor cells treated with the topoisomerase II inhibitor, doxorubicin. A measurement of G2M checkpoint abrogation is the phosphorylation of histone H3 on serine 10 that occurs after cells traverse the G2M checkpoint and enter mitosis. The following high content imaging assay can be used to measure the phosphorylation histone H3 in cells. HeLa cells are cultured in MEM Media supplemented with 10% (v/v) FBS and plated at 2000 cells per well in poly D-lysine coated clear bottom black plates, 100 μL volume per well. Plates are then incubated in a cell culture incubator for 18-24 h (37° C., 5% CO2 and 95% relative humidity), Following the initial incubation, 20 μL of MEM Media plus 10% FBS containing […] doxorubicin are added to the appropriate wells of the plates resulting in a final concentration of 125 nM. The plates are returned to the incubator for 24 h, sufficient to arrest the cells at the G2M checkpoint. The next day the cells are treated 1.0 with compounds. Compounds are solubilized at […] in 100% DMSO and then diluted to a 10× stock starting at 50 μM in MEM plus 4% (v/v) DMSO. Subsequently, serial dilutions of the compounds (1:2) are prepared over a 50 μM to 0.39 μM range. Thirteen μL of compound stock is added to the appropriate wells in the plate to produce a final DMSO concentration of 0.4% and a final compound concentration range between 5 and 0.039 μM. […] Plates are scanned with ACUMEN EXPLORER™ Laser-scanning fluorescence microplate cytometers using 488 nm excitation (TTP LABTECH LTC) to measure pHH3 and DNA content including 2N, and 4N, The pHH3 positive cells are identified by mean intensity at 519 nm from Alexa 488. […] The final readout for each population is determined by normalizing to the % of total cells producing a final assay output of % pHH3, % 2N, and % 4N. 100% activity is then determined by treating cells with the maximum concentration of an inhibitor control compound at 100 nM to determine the final % activity of each compound. […]

EC50 (Homo sapiens, HeLa, 7 h) [nM]	EC50 (acetic acid salt) [nM]	SMILES
29	–	COc1nc(C)ccc1-c1cc(Nc2cncc(O[C@@H]3CCCNC3)n2)[nH]n1 [Example 1, (R)-[5-(2-Methoxy-6-methyl-pyridin-3-yl)-2H-pyrazol-3-yl]-[6-(piperidin-3-yloxy)-pyrazin-2-yl]-amine]
–	19	COc1nc(C)ccc1-c1cc(Nc2cncc(O[C@@H]3CCCNC3)n2)[nH]n1 [Example 3, (R)-[5-(2-Methoxy-6-methyl-pyridin-3-yl)-2H-pyrazol-3-yl]-[6-(piperidin-3-yloxy)-pyrazin-2-yl]-amine acetic acid salt]
